Data: PMC3401907, “Cellular Uptakes, Biostabilities and Anti-miR-210 Activities of Chiral Arginine-PNAs in Leukaemic K562 Cells” (Chembiochem, 2012)

Legend:
K562 cells [1] = conditions: cited from earlier work
Method: In order to determine the distributions of PNAs within target cells, analysis was performed with a fluorescence microscope. […] Low uptake was also found by fluorescence microscopy with PNA1.[25]

[2] = system: DNA2 (mismatched DNA, G→T); experiment: Melting temperature (Tm) of PNA:DNA duplexes, single-mismatch DNA; format: binding; conditions: single mismatch; UV absorbance at 260 nm, PBS buffer pH 7 with urea 5 M, strand concentration 5 μM
From the text: (§1) Sequence selectivity is a very important issue in view of the use of PNAs in cellular systems, because partial hybridisation might occur with other unrelated miRNAs or, most importantly, with mRNA targets. We analysed the sequence selectivities of our PNAs with stricter models (DNA2 and RNA2) involving single base mismatches (G→T or G→U) located in the middle of the target sequences. In each case the sequence selectivity was confirmed by significant lowering of the melting temperature. The ranges of ΔTm due to the presence of these single mismatches were 8–21 °C for DNA, with the maximum drop in the case of PNA4 and the minimum observed in that of PNA6. For the latter it should be considered that the mismatch was facing the last chiral monomer, preventing the cooperative effect observed in the case of 2D-modifed highly constrained PNA.[22]
(§2) Measurements of Tm values: The Tm values were determined with a Lambda Bio 20 spectrophotometer and a Peltier PTP6 temperature programmer. Thermal denaturation profiles were measured by monitoring the absorbance at 260 nm from 18 to 90 °C with a heating rate of 1 °C min^−1 and recording every 0.1 °C. Measurement conditions: [PNA]=[DNA] or [RNA]=5 μM in PBS buffer [pH 7.0, NaCl (100 mM), NaH2PO4⋅H2O (10 mM), EDTA (0.1 mM)] with urea (5 M).

miR-210 [3] = experiment: miR-210 content by RT-qPCR analysis; format: cell-based, human; conditions: K562 cells, 24 h; for inhibition of miR-210 bioavailability (miR-210 content): PNA 2 μM, Figure 5 A and B, relative to pept-1
Method: K562 cells were treated with 15 nM mithramycin in the presence of a PNA (2 μM), and after 24 h RNA was isolated and miR-210 was assayed by RT-qPCR analysis. This type of test has been used to evaluate miR content in many studies because it allows the free-miR content to be evaluated. […] Figure 5 A and B reports the obtained data, showing that inhibition of miR bioavailability was induced both with the modified PNA and with the peptide-conjugated one, whereas in the case of PNA1 it was unchanged. […] This might be related to inhibition of pre-miR maturation or to unavailability of the miR to the qRT-PCR analysis due to strong complexation with the PNA. In either case the bioavailability of the miR for targeting other genes should be reduced.
Transfection procedures: Anti-miR-210 PNAs were directly added to the cellular medium to reach the indicated final concentrations. K562 cells were cultured in 24-well plates starting from the initial density of 30 000 cells per mL. MTH was administrated together with anti-miR PNAs.
RNA extraction: Cells were isolated by centrifugation at 1500 rpm for 10 min at 4 °C, washed in PBS and lysed in Tri-reagent (Sigma–Aldrich) according to the manufacturer's instructions. The isolated RNA was washed once with cold ethanol (75 %), dried and dissolved in ultrapure nuclease-free water.
Real-time quantitative PCR: For microRNA quantification with real-time RT-PCR reagents, the primers and probes were obtained from Applied Biosystems. Reverse transcriptase (RT) reactions were performed with a TaqMan MicroRNA Reverse Transcription Kit (Applied Biosystems) for hsa-miR-210, hsa-miR-10a, hsa-miR-93, hsa-miR-99b, hsa-miR-126, hsa-miR-149, hsa-miR-424, hsa-miR-483-5p, hsa-miR-625, hsa-let-7c and the iQTM5 real-time PCR System Instrument (Bio-Rad). Relative expression was calculated by the comparative cycle threshold method and U6 microRNA was used as reference gene to normalise all RNA samples, because it is constant in the assayed samples by miR-profiling and quantitative RT-PCR analysis as previously reported.[25]

[4] = system: RNA1 (target region of miR-210); experiment: Melting temperature (Tm) of PNA:RNA duplexes, full-match RNA; format: binding; conditions: UV absorbance at 260 nm, strand concentration 5 μM; for Tm, RNA1 in water: PBS buffer pH 7, no urea; for Tm, RNA1 in urea (5 M): PBS buffer pH 7 with urea 5 M
Method: as §2, with “Measurement conditions: [PNA]=[DNA] or [RNA]=5 μM in PBS buffer [pH 7.0, NaCl (100 mM), NaH2PO4⋅H2O (10 mM), EDTA (0.1 mM)] with urea (5 M).” left out

miR-210 [5] = conditions: cited from earlier work; for anti-miR activity: K562 cells, previously demonstrated
From the text: (§3) The first step necessary to achieve anti-miR activity in cells is effective cellular uptake.

[6] = system: RNA2 (mismatched RNA, G→U); experiment: Melting temperature (Tm) of PNA:RNA duplexes, single-mismatch RNA; format: binding; conditions: UV absorbance at 260 nm, PBS buffer pH 7 with urea 5 M, strand concentration 5 μM
From the text: as §1, §2

[7] = system: DNA1 (full-match antiparallel DNA); experiment: Melting temperature (Tm) of PNA:DNA duplexes, full-match DNA; format: binding; conditions: UV absorbance at 260 nm, strand concentration 5 μM; for Tm, DNA1 in urea (5 M): PBS buffer pH 7 (NaCl 100 mM, NaH2PO4 10 mM, EDTA 0.1 mM) with urea 5 M; for Tm, DNA1 in water: PBS buffer pH 7, no urea, 18 to 90 °C at 1 °C/min
Method: as §2, with “Measurement conditions: [PNA]=[DNA] or [RNA]=5 μM in PBS buffer [pH 7.0, NaCl (100 mM), NaH2PO4⋅H2O (10 mM), EDTA (0.1 mM)] with urea (5 M).” left out

γ-globin gene expression = γ-globin gene expression by RT-qPCR; format: cell-based, human; conditions: mithramycin-treated (15 nM) K562 cells, PNA 2 μM single administration, 72 h, n=3
Method: The strong inhibition of miR-210 by PNA2 and PNA4 might thus result in appreciable reduction of γ-globin gene expression.
Figure 6 A) Effects of pept-1, PNA1, PNA2 and PNA4 molecules (each 2 μM) on γ-globin content in K562 cell cultures for 72 h with MTH (15 nM). Data are reported as arbitrary units relative to cells treated with pept-1 and MTH (average±SD, n=3, *: p<0.05, **: p<0.01). B), C) Effects of treatment (72 h) with pept-1, PNA1, PNA2 and PNA4 molecules on K562 cells induced to erythroid differentiation by MTH (15 nM): B) summary of three independent experiments, C) a representative experiment showing staining of the cells with benzidine.
The nucleotide sequences used for real-time qPCR analysis of γ-globin mRNAs were γ-globin forward primer (5′-TGGCAA GAAGGT GCTGAC TTC-3′), γ-globin reverse primer (5′-TCACTC AGCTGG GCAAAG G-3′) and γ-globin probe (5′-FAM-TGGGAG ATGCCA TAAAGC ACCTGG-TAMRA-3′).[25] The relative expression was calculated by the comparative cycle threshold method with endogenous control human 18S rRNA as reference genes.[25]

K562 cells [8] = experiment: Mithramycin-induced erythroid differentiation (benzidine-positive cells); format: cell-based, human; conditions: MTH 15 nM, PNA 2 μM, benzidine-positive cells after 5 days of induction, three independent experiments
Method: In order to evaluate effects on mithramycin-induced cellular differentiation, K562 cells were treated with MTH in the presence of pept-1, PNA1, PNA2 and PNA4 (each 2 μM). The proportions of benzidine-positive cells were determined after 5 days of induction.
Human cell lines and culture conditions: Human leukaemia K562 cells were cultured under humidified CO2 (5 %)/air in RPMI 1640 medium (Sigma) supplemented with foetal bovine serum (FBS, 10 %, Analitical de Mori, Milan, Italy), penicillin (50 units mL^−1) and streptomycin (50 μg mL^−1).[26] Mithramycin (MTH) was from Sigma. Stock solutions of MTH (100 μM) were stored at −20 °C in the dark and diluted immediately before use. Treatment of K562 cells with MTH was carried out by addition of the appropriate drug concentrations at the beginning of the cultures (cells were seeded at 30 000 mL^−1). The medium was not changed during the induction period. To determine antiproliferative activity, cell growth was studied by determining the cell number per mL with a Z1 Coulter Counter (Coulter Electronics, Hialeah, FL, USA). Erythroid differentiated K562 cells containing haemoglobin were detected by specific reaction with a benzidine/hydrogen peroxide solution as reported elsewhere.[26] The final concentration of benzidine was 0.2 % in glacial acetic acid (5 M) and H2O2 (10 %).

K562 cells [9] = conditions: previously demonstrated; cited from earlier work
From the text: as §3

| Substance | uptake by fluorescence microscopy (K562 cells [1]) | Tm, DNA2 in urea (5 M) [2] | inhibition of miR-210 bioavailability (miR-210 content) (miR-210 [3]) | Tm, RNA1 in water [4] | Tm, RNA1 in urea (5 M) [4] | anti-miR activity (miR-210 [5]) | Tm, RNA2 in urea (5 M) [6] | Tm, DNA1 in urea (5 M) [7] | Tm, DNA1 in water [7] | effect on γ-globin gene expression (γ-globin gene expression) | effect on MTH-induced erythroid differentiation (K562 cells [8]) | miR-210 inhibition upon treatment with mithramycin (miR-210 [3]; PNA 2 μM with MTH 15 nM, relative to pept-1 and MTH) | internalisation within K562 cells (K562 cells [9]) | selectivity of miR-210 inhibition versus other miRs (miR-210 [5]; previously found) |
| --- | --- | --- | --- | --- | --- | --- | --- | --- | --- | --- | --- | --- | --- | --- |
| H-CCGCTGTCACACGCACAG-NH2 [PNA1, unmodified achiral "naked" 18-mer PNA targeted against miR-210, reference compound] | Low uptake | 58 °C | unchanged | 88 °C | 77 °C | no activity | 62 °C | 70 °C | 85 °C | did not show appreciable effects |  |  |  |  |
| H-R8CCGCTGTCACACGCACAG-NH2 [PNA2, 18-mer anti-miR-210 PNA conjugated with octaarginine (R8) peptide, reference compound] |  | 68 °C | Stronger inhibition | >90 °C | 88 °C | pronounced anti-miR activity | 73 °C | 80 °C | >90 °C | inhibited γ-globin gene expression | able to inhibit erythroid differentiation | best results | efficiently internalised | inhibit miR-210 selectively |
